The results in this text go back to ChEMBL document CHEMBL4627311, “Discovery of 4-((1-(1H-imidazol-2-yl)alkoxy)methyl)pyridines as a new class of Trypanosoma cruzi growth inhibitors” (Bioorg Med Chem Lett, 2020).

By EC50 is commonly meant the midpoint of the concentration-response curve. A low value points to a more potent agent. The IC50 is the concentration needed to halve the response being measured. Low values mean greater potency in that assay, high ones weaker potency in that assay.

Sterol 14-alpha demethylase, sequence (Q7Z1V1 whole entry): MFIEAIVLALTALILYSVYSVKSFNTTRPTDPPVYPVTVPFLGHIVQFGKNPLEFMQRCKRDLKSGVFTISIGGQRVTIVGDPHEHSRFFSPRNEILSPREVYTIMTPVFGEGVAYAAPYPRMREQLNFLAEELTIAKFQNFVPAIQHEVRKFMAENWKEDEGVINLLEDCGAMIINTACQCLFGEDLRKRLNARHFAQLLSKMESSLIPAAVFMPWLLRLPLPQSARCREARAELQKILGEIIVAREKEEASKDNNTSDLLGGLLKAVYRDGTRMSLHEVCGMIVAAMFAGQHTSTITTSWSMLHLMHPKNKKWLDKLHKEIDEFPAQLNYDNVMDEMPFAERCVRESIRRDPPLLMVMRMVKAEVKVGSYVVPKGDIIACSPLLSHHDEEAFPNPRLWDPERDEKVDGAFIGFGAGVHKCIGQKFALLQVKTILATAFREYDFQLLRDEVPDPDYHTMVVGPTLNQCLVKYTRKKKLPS

The first assay deals with Trypanosoma cruzi. Put plainly: Antitrypanosomal activity against Trypanosoma cruzi. The format is functional, organism-based.
In the case of `CCC(=O)CCCCCC(Oc1cc2ccccc2nc1OC)c1ncc(Cc2ccncc2)[nH]1` (centres undefined), a half-maximal effect (EC50) was put at 2000 nM.

`CC1CS(=O)(=O)CCN1/N=C/c1ccc([N+](=O)[O-])o1` (centres undefined) [NIFURTIMOX]: the EC50 is 8000 nM. Compound `O=C(Cn1ccnc1[N+](=O)[O-])NCc1ccccc1` [BENZNIDAZOLE] displayed an EC50 of 2000 nM.

The next assay has as its target Sterol 14-alpha demethylase (Trypanosoma cruzi (strain CL Brener), UniProt Q7Z1V1). Nature of the assay: Inhibition of Trypanosoma cruzi CYP51.
In turn, `CCC(=O)CCCCCC(Oc1ccc2ccccc2c1)c1ncc(Cc2ccccc2)[nH]1` (centres undefined) came in with an IC50 of 2900 nM. In other words, the single-digit micromolar range. The same measure, in the same setting: the result for `CCC(=O)CCCCCC(Oc1ccc2ccccc2c1)c1ncc(Cc2ccncc2)[nH]1` (stereo in doubt; 11) reads 52 nM. Still for that read-out and setting: the result for `CCC(=O)CCCCCC(Oc1ccc2ccccc2c1)c1ncc(Cc2ccncc2)[nH]1` (stereo in doubt; 35) reads 34 nM; that for `CCC(=O)CCCCCC(Oc1ccc2ccccc2c1)c1ncc(Cc2ccncc2)[nH]1` (stereo in doubt; 34), 41 nM; that for `CCC(=O)CCCCCC(OCc1ccncc1)c1ncc(-c2ccc3ccccc3c2)o1` (centres undefined), 53 nM. On the same count and under the same terms, the result for `CC(OCc1ccncc1)c1ncc(-c2ccc3ccccc3c2)[nH]1` (centres undefined) reads 77 nM.
